Patent publication US20210145811A1, “TREATMENT OF CANCER WITH EXON 14 SKIPPING MUTATION(S) OR EXON 14 SKIPPING PHENOTYPE” (Eli Lilly and Company, priority 2016, published 2021)

Experiments:
[1] = biological target: T1, phospho-MET (Y1234/1235) (Homo sapiens, UniProt P08581, DEL964-1010); experiment: Western blotting of phospho-MET in Hs746t cells; assay type: cell-based; conditions: Hs746t cells (MET exon 14 skipping), 2 hours incubation, Western blot
T1 construct: Western blots performed on lysates from in vitro cultured cells confirm a strong band corresponding to MET protein; host or cells: Hs746t
Method: (§1) Hs746t cells are obtained from ATCC® (Manassas, Va.) and are maintained in DMEM Medium with L-glutamine and 10% fetal bovine serum (FBS). MKN45 cells, expressing wild-type MET, are obtained from JCRB Cell Bank (Japan) and are maintained in RPMI 1640 Medium with L-glutamine, 10% FBS, and sodium pyruvate. Cells are grown at 37° C. with 5% CO2. Cells are seeded into 6-well plates, 1 million cells/well, and incubated overnight. Cells are incubated with merestinib for 2 hours, then are lysed in radioimmunoprecipitation assay (RIPA) buffer containing protease inhibitors. Protein concentrations of cell lysates are measured with the DC™ Protein Assay (BioRad), following manufacturer directions. Lysates are electrophoresed on Novex® 4-20% Tris Glycine gels (Invitrogen), and are transferred onto polyvinylidene difluoride (PVDF) membranes. The blots are probed for total MET (clone D1C2, CELL SIGNALING TECHNOLOGY®, Cat #8198), phospho-MET (Y1234/1235, clone D26, CELL SIGNALING TECHNOLOGY®, Cat #3077), and phospho-MET (Y1003, clone 13D11, CELL SIGNALING TECHNOLOGY®, Cat #3135). Monoclonal Anti-β-Actin (clone AC-15, SIGMA-ALDRICH®, Cat #A5441) is used as a loading control. After incubating with horseradish peroxidase (HRP)-linked secondary antibodies, blots are developed with chemiluminescent substrate and imaged on a Lumi-Imager (Roche).

[2] = biological target: T2, phospho-MET (Y1234/1235) (Homo sapiens, UniProt P08581); experiment: Western blotting of phospho-MET in MKN45 cells; assay type: cell-based; conditions: MKN45 cells (wild-type MET), 2 hours incubation, Western blot
T2 construct: MKN45 cells, expressing wild-type MET; host or cells: MKN45
Method: as §1

[3] = system: Hs746t cells; experiment: Cell proliferation assay (CELL TITER-GLO); assay type: cell-based; conditions: Homo sapiens, 120 h, 5 days exposure, n=2, read-out: IC50 in vitro Hs746t cell proliferation
Method: Hs746t cells are seeded onto poly-D-lysine, 96-well plates, 3000 cells/well and allowed to attach overnight in a 37° C. with 5% CO2 incubator. Merestinib is serially diluted 1:3 and added to the cells in triplicate. After 120 hours, cell viability is measured with the CELL TITER-GLO® Luminescent Cell Viability Assay (Promega), following manufacturer directions. The data are analyzed with GraphPad Prism v6 software. The assay is performed in duplicate experiments.

[4] = system: Hs746t-derived xenograft; experiment: In vivo Hs746t xenograft model; set-up: species or system mouse
Method: (§2) Female athymic nude mice (Envigo) are used for this study. Food and water are available ad libitum. Animals are acclimated for 1 week prior to any experimental manipulation. The study is performed in accordance with AAALAC accredited institutional guidelines.
Merestinib is formulated as a solution in 10% PEG 400/90% (20% Captisol in water). Solution is freshly prepared every 7 days.
Hs746t cells are expanded in culture, harvested, and washed in Hank's Balanced Salt Solution (HBSS, GIBCO®). Approximately 5×10^6 cells in HBSS are implanted subcutaneously into the hind flank of the animal. When tumors reach an average size of 150 to 200 mm^3, the animals are randomized into groups of 7. […]
Animals are sacrificed using CO2 and cervical dislocation when tumors grew larger than 2000 mm^3.
(§3) Tumor volumes and body weight are measured bi-weekly. Statistical analysis is performed when 3 of the 7 vehicle treated animals hed been removed from the study due to tumor burden. Tumor volume is transformed to the log scale to equalize variance across time and treatment groups. The log volume data are analyzed with a two-way repeated measures analysis of variance by time and treatment using the MIXED procedures in SAS software (Version 9.3). The correlation model for the repeated measures is spatial power. Treated groups are compared to the control group at each time point. The MIXED procedure is also used separately for each treatment group to calculate adjusted means and standard errors at each time point. Both analyses account for the autocorrelation within each animal and the loss of data that occurs when animals are removed or lost before the end of the study. The adjusted means and standard errors are plotted for each treatment group versus time.
Measure tumor growth with calipers. Calculate tumor volumes by the formula Volume (mm^3)=L×W^2 (π/6) where L represents the larger diameter and W the smaller diameter. Calculate T/C % using the formula T/C %=100×ΔT/ΔC. Where ΔT=mean tumor volume of the drug-treated group on the final day of the study−mean tumor volume of the drug-treated group on the initial day of the dosing and ΔC=mean tumor volume of the control group on the final day of the study−mean tumor volume of the control group on the initial day of the dosing. Calculate changes in body weight by the formula (Weight on observation day−Weight on day 12)/Weight on Day 12×100.

[5] = Body weight and health in Hs746t xenograft study; assay type: in vivo, mouse; conditions: groups treated with merestinib (6 or 12 mg/kg)
Method: as §2
Hs746t cells are expanded in culture, harvested, and washed in Hank's Balanced Salt Solution (HBSS, GIBCO®). Approximately 5×10^6 cells in HBSS are implanted subcutaneously into the hind flank of the animal. When tumors reach an average size of 150 to 200 mm^3, the animals are randomized into groups of 7. Merestinib is prepared and administered via oral gavage at 6 or 12 mg/kg doses on a once daily schedule for 21 days.
as §3, with “Both analyses account for the autocorrelation within each animal and the loss of data that occurs when animals are removed or lost before the end of the study. The adjusted means and standard errors are plotted for each treatment group versus time.” left out

phosphorylated MET at the Y1234/1235 position [1]: inhibited
phosphorylated MET at the Y1234/1235 position [2]: inhibited
Structure (SMILES): Cc1ccc(C(=O)Nc2ccc(Oc3cc4cnn(C)c4cc3-c3cn[nH]c3)c(F)c2)c(=O)n1-c1ccc(F)cc1 [merestinib, N-(3-Fluoro-4-(1-methyl-6-(1H-pyrazol-4-yl)-1H-indazol-5-yloxy)phenyl)-1-(4-fluorophenyl)-6-methyl-2-oxo-1,2-dihydropyridine-3-carboxamide]
IC50 [3]: 33.4 nM
tumors showing signs of regrowth (2 consecutively larger tumor volume measurements) ([4]; 6 mg/kg oral gavage once daily, end of study): 5 of the 7
anti-tumor activity T/C ([4]; 6 mg/kg oral gavage once daily, end of study, p=0.033 vs vehicle): 18.3%
tumor regression ([4]; 12 mg/kg oral gavage once daily, to the end of the study): 91.8%
tumor re-growth after treatment is terminated ([4]; 12 mg/kg, 5 weeks after treatment terminated): no tumor re-growth was observed
animals that are complete responders ([4]; 12 mg/kg, 64 days of dosing): 6 of the 7
tumor re-growth during treatment (treatment resistance) ([4]; 12 mg/kg, within 2 months of treatment): No tumor re-growth is observed
health issues in the animals [5]: no noticeable health issues
